Legend:
[1] = biological target: T1, human placental aromatase (Homo sapiens, UniProt P11511); experiment: Aromatase inhibition in vitro (human placental aromatase, 3H2O release assay); format: biochemical
T1 construct: The enzyme system was isolated from the microsomal fraction of human placental tissue; from tissue; host or cells: human placental tissue, microsomal fraction
T1 sequence (P11511 1-503): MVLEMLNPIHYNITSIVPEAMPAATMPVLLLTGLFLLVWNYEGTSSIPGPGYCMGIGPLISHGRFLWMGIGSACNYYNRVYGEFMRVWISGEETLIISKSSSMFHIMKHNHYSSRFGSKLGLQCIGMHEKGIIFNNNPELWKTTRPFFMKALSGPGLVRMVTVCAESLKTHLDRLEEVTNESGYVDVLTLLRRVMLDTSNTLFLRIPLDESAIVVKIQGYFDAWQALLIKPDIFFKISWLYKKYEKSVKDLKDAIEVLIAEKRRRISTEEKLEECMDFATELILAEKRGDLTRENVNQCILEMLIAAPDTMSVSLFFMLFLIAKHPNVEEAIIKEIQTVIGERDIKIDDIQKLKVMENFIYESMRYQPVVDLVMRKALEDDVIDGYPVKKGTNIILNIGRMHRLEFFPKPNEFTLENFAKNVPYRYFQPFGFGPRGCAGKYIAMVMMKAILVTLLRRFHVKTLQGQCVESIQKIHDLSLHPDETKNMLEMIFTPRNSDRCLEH
Procedure: Aromatase inhibition by the compounds of the present invention was determined, e.g., both in vitro (human placental aromatase) and in vivo (ovarian aromatase activity) in rats.
(a) Aromatase inhibition in vitro
(§1) The enzyme system was isolated from the microsomal fraction of human placental tissue according to standard procedure. The assay of Thompson and Siiteri [E. A. Thompson and P. K. Siiteri, J. Biol. Chem. 249, 5364, (1974)] which determines the rate of aromatization as measured by the liberation of ^3 H2 O from 4-[1β,2β-^3 H] androsten-3,17-dione was used. All incubations were carried out in a shaking water bath at 37° C. in air in 10 mM potassium phosphate buffer, pH 7.5, which contained 100 mM KCl, 1 mM EDA and 1 mM dithiothreitol. The experiments were carried out in 1 ml incubation volume containing 50 nM 4-[…], various concentrations of the inhibitors, 100 μM NADPH and 0.05 mg of microsomal proteins. After 15 minutes of incubation the reaction was stopped by the addition of chloroform (5 ml). After centrifugation at 1500×g for 5 minutes, aliquots (0.5 ml) were removed from the water phase for determination of ^3 H2 O formed. The concentration of each compound required to reduce control aromatase by 50% (IC50) was determined by plotting % inhibition versus log of inhibitor concentration. The relative potency of each compound versus 4 OH-A was calculated according to the relation: [formula] (b) Aromatase inhibition in vivo in rats Adult female rats were twice treated subcutaneously with 100 I.U. pregnant mares' serum gonadotropin (PMSG) at 4 days' interval, in order to increase ovarian aromatase activity, according to Brodie's procedure [A. M. H. Brodie et al., Steroids 38, 693, (1981)]. Three days after the second PMSG treatment, groups of 6 animals each were given orally the vehicle (0.5% methocel) or the inhibitor at 30 mg/kg. Animals were killed 24 hours later, microsomes were isolated from ovaries and their aromatase activity determined using a method similar to that described in (a).

rat ovarian aromatase = experiment: Aromatase inhibition in vivo in rats (ovarian aromatase activity); conditions: for % Aromatase inhibition at 30 mg/kg p.o.: PMSG-treated adult female rats, ovaries taken 24 hours later; for In vivo effectiveness by oral route: 30 mg/kg
Text: The aromatase inhibitors for formula (I) can find also use in the control of reproduction: indeed a decrease in oestrogen levels in vivo results in gonad-inhibiting activity and in insufficient uterine development; aromatase inhibitors may be at the same time implantation inhibitors. Another application of the compounds of the invention is in the treatment of prostatic hypertrophy or hyperplasia, related to an excessive oestrogen production and the shifting of the oestrogen/androgen ratio to higher values. Furthermore, the compounds of the invention, producing decrease in estradiol formation, may be useful for the treatment of male fertility disturbances (Drugs 28: 263, 1984). […] Accordingly, decreased estradiol formation, as can be obtained through administration of the compounds of the invention, leads to an improvement of both sperm count and fertility, in patients with infertility due to oligozoospermia. Aromatase inhibition by the compounds of the present invention was determined, e.g., both in vitro (human placental aromatase) and in vivo (ovarian aromatase activity) in rats.
as §1

[2] = cited from earlier work
[3] = Resistance to hepatic metabolization; conditions: oral route

In the case of `C[C@]12C=CC(=O)C=C1CC[C@@H]1[C@@H]2CC[C@]2(C)OC(=O)CC[C@@H]12` [Δ^1 -testololactone, reference compound], the IC50 [1] is reported as 8240 nM, the “Relative potency (versus 4-OH-A)” value [1] is reported as 0.005 and the “% Aromatase inhibition at 30 mg/kg p.o.” value (rat ovarian aromatase) is reported as “inactive”.

With `C[C@]12CCC(=O)C(O)=C1CC[C@@H]1[C@@H]2CC[C@]2(C)C(=O)CC[C@@H]12` [Example 4-OH-A, 4-hydroxyandrost-4-en-3,17-dione, reference compound] the IC50 [1] was 44 nM, the “% Aromatase inhibition at 30 mg/kg p.o.” value (rat ovarian aromatase) was “inactive” and the “In vivo effectiveness by oral route” value (rat ovarian aromatase) was “ineffective”. The “Conjugation after oral administration” value [2] was “extensively conjugated after oral administration”.

In the case of `C[C@]12CCC(=O)C(N)=C1C=C[C@@H]1[C@@H]2CC[C@]2(C)C(=O)CC[C@@H]12` [FCE 24210, 4-aminoandrosta-4,6-dien-3,17-dione], the IC50 [1] is reported as 148 nM, the “Relative potency (versus 4-OH-A)” value [1] is reported as 0.30 and the “Aromatase inhibition in vitro” value ([1]; in vitro) is reported as “very potent aromatase inhibitors both in vitro and in vivo”. For the same compound, the “In vitro potency relative to 4-OH-A” value ([1]; in vitro) was “about three times lower than that of 4-OH-A”, the “% Aromatase inhibition at 30 mg/kg p.o.” value (rat ovarian aromatase) was 70% and the “Aromatase inhibition in vivo” value (rat ovarian aromatase; in vivo) was “very potent aromatase inhibitors both in vitro and in vivo”. For the same compound, the “In vivo activity compared to androsta-1,4-dien-3,17-dione” value (rat ovarian aromatase; in vivo) was “very superior to that of androsta-1,4-dien-3,17-dione”, the “In vivo effectiveness by oral route” value (rat ovarian aromatase) was “very effective when administered in vivo by oral route” and the “Potency relative to androsta-1,4-dien-3,17-dione” value (rat ovarian aromatase; stated as in vivo) was “about equipotent as androsta-1,4-dien-3,17-dione”. The “Potency relative to Δ^1-testololactone (times more potent)” value (rat ovarian aromatase; stated as in vivo) was “about 55 times” and the “Resistance to hepatic metabolization” value [3] was “unusual resistance to hepatic metabolization”.

With `C[C@]12C=CC(=O)C=C1CC[C@@H]1[C@@H]2CC[C@]2(C)C(=O)CC[C@@H]12` [androsta-1,4-dien-3,17-dione, reference compound] the “% Aromatase inhibition at 30 mg/kg p.o.” value (rat ovarian aromatase) was 37%.

Reference: patent US4757061A, “4-amino androstendione derivatives and process for their preparation” (Farmitalia Carlo Erba, S.p.A., priority 1985, dated 1988)
